The values below come from PubChem BioAssay AID328 (DTP/NCI, 2004).

For this assay, the system named is BDF1 mice, P388 leukemia ip, median survival T/C. Description: NCI In Vivo Anticancer Drug Screen. Data for tumor model P388 Leukemia (intraperitoneal) in B6D2F1 (BDF1) mice. To be noted: endpoint: median survival time, higher = longer survival. In outline:
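Steps: implant the tumour, treat one group with compound and another with vehicle, record survival, then divide treated by control.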

Setting [1] is: dose: 50.0 mg/kg/injection, schedule: Q04DX003 (ip), vehicle: saline.
[2] abbreviates: dose: 100.0 mg/kg/injection, schedule: Q04DX003 (ip), vehicle: saline.
Setting [3] is: dose: 200.0 mg/kg/injection, schedule: Q04DX003 (ip), vehicle: saline.
Where [4] appears, read: dose: 50.0 mg/kg/injection, schedule: Q04DX003 (ip), vehicle: saline with Tween-80.
[5] abbreviates: dose: 100.0 mg/kg/injection, schedule: Q04DX003 (ip), vehicle: saline with Tween-80.
Where [6] appears, read: dose: 200.0 mg/kg/injection, schedule: Q04DX003 (ip), vehicle: saline with Tween-80.
Where [7] appears, read: dose: 100.0 mg/kg/injection, schedule: Q01DX001 (ip), vehicle: saline with Tween-80.
Setting [8] is: dose: 200.0 mg/kg/injection, schedule: Q01DX001 (ip), vehicle: saline with Tween-80.
The mark [9] stands for this setting: dose: 400.0 mg/kg/injection, schedule: Q01DX001 (ip), vehicle: saline with Tween-80.
Where [10] appears, read: dose: 100.0 mg/kg/injection, schedule: Q01DX009 (ip), vehicle: saline with Tween-80.
Where [11] appears, read: dose: 200.0 mg/kg/injection, schedule: Q01DX009 (ip), vehicle: saline with Tween-80.
Setting [12] is: dose: 400.0 mg/kg/injection, schedule: Q04DX003 (ip), vehicle: saline with Tween-80.
Where [13] appears, read: dose: 6.25 mg/kg/injection, schedule: Q04DX003 (ip), vehicle: saline with Tween-80.
[14] abbreviates: dose: 12.5 mg/kg/injection, schedule: Q04DX003 (ip), vehicle: saline with Tween-80.
[15] abbreviates: dose: 25.0 mg/kg/injection, schedule: Q04DX003 (ip), vehicle: saline with Tween-80.
Setting [16] is: dose: 25.0 mg/kg/injection, schedule: Q01DX009 (ip), vehicle: saline with Tween-80.
Setting [17] is: dose: 50.0 mg/kg/injection, schedule: Q01DX009 (ip), vehicle: saline with Tween-80.
Where [18] appears, read: dose: 6.25 mg/kg/injection, schedule: Q01DX009 (ip), vehicle: saline with Tween-80.
Where [19] appears, read: dose: 12.5 mg/kg/injection, schedule: Q01DX009 (ip), vehicle: saline with Tween-80.

“And” between values parts separate entries of the source, which are not always exact repeats. Identical values can stand only once. Inconclusive results and toxic doses are left out.

Turning to `COc1cccc(/C=C/[N+](=O)[O-])c1OC`, the T/C runs as follows: (dose: 6.25 mg/kg/injection, schedule: Q01DX009 (ip), vehicle: Klucel (hydroxypropylcellulose) (HPC)) 113 % of control; (dose: 6.25 mg/kg/injection, schedule: Q01DX009 (ip), vehicle: saline) 100 % of control; (dose: 12.5 mg/kg/injection, schedule: Q01DX009 (ip), vehicle: saline) 106 % of control; (dose: 12.5 mg/kg/injection, schedule: Q01DX010 (ip), vehicle: carboxymethylcellulose (CMC)) 115 % of control; (dose: 25.0 mg/kg/injection, schedule: Q01DX009 (ip), vehicle: saline) 104 % of control; (dose: 35.0 mg/kg/injection, schedule: Q01DX009 (ip), vehicle: Klucel (hydroxypropylcellulose) (HPC)) 117 % of control. The T/C runs as follows: (dose: 50.0 mg/kg/injection, schedule: Q01DX009 (ip), vehicle: saline) 113 % of control; under setting [1], 102 % of control; (dose: 100.0 mg/kg/injection, schedule: Q01DX009 (ip), vehicle: saline) 104 % of control; under setting [2], 98 % of control; (dose: 200.0 mg/kg/injection, schedule: Q01DX009 (ip), vehicle: saline) 91 % of control; under setting [3], 95 % of control. The T/C is 91 % of control (dose: 400.0 mg/kg/injection, schedule: Q01DX009 (ip), vehicle: saline) and 106 % of control (dose: 400.0 mg/kg/injection, schedule: Q04DX003 (ip), vehicle: saline).
Turning to `CC(Br)C(=O)NC(CC(N)=O)C(=O)O` (stereo not given), the T/C is 100 % of control under setting [4], 90 % of control under setting [5] and 100 % of control under setting [6].
As to `c1ccc(OCC2c3ccccc3Nc3ccccc32)cc1`, the T/C by setting is: under setting [7], 91 % of control; under setting [8], 94 % of control; under setting [9], 100 % of control.
With `COc1ccc(CCNC(=O)Cc2ccccc2)cc1OC`, the T/C under setting [10] was 95 % of control; the T/C under setting [5] was 109 % of control; the T/C under setting [11] is 90 % of control; the T/C under setting [6] is 100 % of control; the T/C (dose: 400.0 mg/kg/injection, schedule: Q01DX009 (ip), vehicle: saline with Tween-80) was 100 % of control; the T/C under setting [12] is 100 % of control.
Turning to `CCCCCCCCCCCCSCCCCSCCCCCCCCCCCC`, the T/C by setting is: (dose: 100.0 mg/kg/injection, schedule: Q01DX001 (ip), vehicle: saline sonified) 100 % of control; (dose: 200.0 mg/kg/injection, schedule: Q01DX001 (ip), vehicle: saline sonified) 86 % of control.
Regarding `c1ccc(CC(Cc2ccccc2)NC2=NCCO2)cc1`, the T/C was 100 % of control under setting [13], 100 % of control under setting [14] and 100 % of control under setting [15].
For `CC(=O)Nc1cccc(N(CCOS(C)(=O)=O)CCOS(C)(=O)=O)c1`, the T/C was 95 % of control (dose: 13.0 mg/kg/injection, schedule: Q04DX003 (ip), vehicle: saline sonified); 95 % of control (dose: 20.0 mg/kg/injection, schedule: Q04DX003 (ip), vehicle: saline sonified); 100 % of control (dose: 30.0 mg/kg/injection, schedule: Q04DX003 (ip), vehicle: saline sonified).
In the case of `CCOC(=O)c1nc(NC)sc1N`, the T/C (dose: 25.0 mg/kg/injection, schedule: Q04DX003 (ip), vehicle: saline) is 97 % of control; the T/C under setting [1] is 100 % of control; the T/C under setting [2] was 105 % of control; the T/C under setting [3] is 96 % of control.
Take `CCCCNC(C)(C)C(SSC(c1cccs1)C(C)(C)NCCCC)c1cccs1` (stereo not given): the T/C runs as follows: under setting [16], 100 % of control; under setting [15], 109 % of control; under setting [17], 100 % of control; under setting [4], 118 % of control; under setting [5], 118 % of control.
For the compound `O=C1CSC(c2ccccc2)N1c1nccs1` (stereo not given), the T/C is 98 % of control under setting [17], 91 % of control under setting [10] and 104 % of control under setting [11].
Take `CC(C)(C)c1cc(C(=O)O)c(Sc2c(C(=O)O)cc(C(C)(C)C)cc2C(C)(C)O)c(C(C)(C)O)c1`: the T/C reads like this: under setting [7], 101 % of control; under setting [8], 101 % of control; under setting [9], 113 % of control.
Turning to `CCOC(=O)/C=C(/C)Sc1cc(O)c2ccccc2c1O`, the T/C (dose: 1.56 mg/kg/injection, schedule: Q01DX009 (ip), vehicle: saline with Tween-80) is 101 % of control and 124 % of control; the T/C (dose: 3.13 mg/kg/injection, schedule: Q01DX009 (ip), vehicle: saline with Tween-80) was 119 % of control and 120 % of control; the T/C under setting [18] was 124 % of control; the T/C under setting [19] is 114 % of control.
For the compound `COc1cc2cnc3c4cc(OC)c(OC)cc4ccc3c2cc1OC`, the T/C by setting is: (dose: 20.0 mg/kg/injection, schedule: Q01DX009 (ip), vehicle: saline with Tween-80) 100 % of control; (dose: 40.0 mg/kg/injection, schedule: Q01DX009 (ip), vehicle: saline with Tween-80) 100 % of control; (dose: 80.0 mg/kg/injection, schedule: Q01DX009 (ip), vehicle: saline with Tween-80) 115 % of control; (dose: 120.0 mg/kg/injection, schedule: Q01DX009 (ip), vehicle: saline with Tween-80) 100 % of control; (dose: 240.0 mg/kg/injection, schedule: Q01DX009 (ip), vehicle: saline with Tween-80) 100 % of control.
Take `N/C(=N\[N+](=O)[O-])N(CCCCl)N=O`: the T/C under setting [16] is 103 % of control; the T/C (dose: 27.0 mg/kg/injection, schedule: Q01DX009 (ip), vehicle: Klucel (hydroxypropylcellulose) (HPC)) is 152 % of control; the T/C (dose: 33.0 mg/kg/injection, schedule: Q01DX009 (ip), vehicle: saline with Tween-80) was 108 % of control; the T/C (dose: 37.5 mg/kg/injection, schedule: Q04DX003 (ip), vehicle: saline sonified) is 100 % of control; the T/C (dose: 40.0 mg/kg/injection, schedule: Q01DX009 (ip), vehicle: Klucel (hydroxypropylcellulose) (HPC)) was 157 % of control; the T/C under setting [17] was 107 % of control. The T/C runs as follows: (dose: 60.0 mg/kg/injection, schedule: Q01DX009 (ip), vehicle: Klucel (hydroxypropylcellulose) (HPC)) 166 % of control; (dose: 75.0 mg/kg/injection, schedule: Q04DX003 (ip), vehicle: saline sonified) 100 % of control; under setting [10], 120 % of control; under setting [5], 109 % of control; (dose: 112.5 mg/kg/injection, schedule: Q01DX009 (ip), vehicle: saline with Tween-80) 154 % of control; (dose: 150.0 mg/kg/injection, schedule: Q04DX003 (ip), vehicle: saline sonified) 100 % of control. Moreover, the T/C was 100 % of control (dose: 176.0 mg/kg/injection, schedule: Q04DX003 (ip), vehicle: saline sonified) and 122 % of control under setting [6].
Turning to `O=C(Nc1cccc(C2=NCCN2)c1)c1ccc(C(=O)Nc2cccc(C3=NCCN3)c2)c(Cl)c1`, the T/C reads like this: (dose: 1.0 mg/kg/injection, schedule: Q01DX010 (ip), vehicle: water) 100 % of control; (dose: 2.0 mg/kg/injection, schedule: Q01DX010 (ip), vehicle: water) 100 % of control; (dose: 4.0 mg/kg/injection, schedule: Q01DX010 (ip), vehicle: water) 100 % of control.
Regarding `Nc1nc(N)c2cc(S(=O)c3ccc4ccccc4c3)ccc2n1` (stereo not given), the T/C is 95 % of control under setting [17], 95 % of control under setting [10] and 104 % of control under setting [11].
For the compound `CC(Br)C(=O)NC(C)C(=O)O` (stereo not given), the T/C was 100 % of control under setting [5], 109 % of control under setting [6] and 118 % of control under setting [12].
For the compound `CCCCOc1ccc(C(=O)NN)cc1`, the T/C is 118 % of control under setting [18]; 100 % of control under setting [13]; 108 % of control under setting [19]; 91 % of control and 92 % of control under setting [14]; 99 % of control under setting [16]; 90 % of control and 106 % of control under setting [15]. The T/C runs as follows: under setting [17], 115 % of control; under setting [4], 97 % of control and 98 % of control; under setting [10], 97 % of control.
